Target: T1, human cytosolic β-glucosidase (Homo sapiens, UniProt Q9H227)
T1 sequence (Q9H227 1-469): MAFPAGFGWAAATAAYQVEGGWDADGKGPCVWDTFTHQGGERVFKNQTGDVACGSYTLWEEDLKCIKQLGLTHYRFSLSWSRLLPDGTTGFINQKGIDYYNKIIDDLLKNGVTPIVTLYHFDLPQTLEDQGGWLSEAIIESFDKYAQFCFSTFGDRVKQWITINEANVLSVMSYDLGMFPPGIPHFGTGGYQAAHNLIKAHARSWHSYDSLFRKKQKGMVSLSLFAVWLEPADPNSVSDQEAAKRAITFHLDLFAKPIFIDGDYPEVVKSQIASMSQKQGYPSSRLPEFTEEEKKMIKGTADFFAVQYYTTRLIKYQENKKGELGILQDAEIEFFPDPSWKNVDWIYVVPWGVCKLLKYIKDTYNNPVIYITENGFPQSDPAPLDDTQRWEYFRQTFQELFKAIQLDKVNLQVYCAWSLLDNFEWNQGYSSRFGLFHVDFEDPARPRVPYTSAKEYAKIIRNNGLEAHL
Assay: Glycosidase specificity: cytosolic
Format: biochemical

O=C(Nc1ccncc1)c1ccc(Oc2cc(Cl)cc(Cl)c2)o1 [compound 2, 5-(3,5-dichlorophenoxy)-N-(4-pyridinyl)-2-furamide]
inhibition of neutral β-glucosidase: virtually non-inhibitory
